Source: article PMC7026885, “Macrofilaricidal Benzimidazole–Benzoxaborole Hybrids as an Approach to the Treatment of River Blindness: Part 1. Amide Linked Analogs” (ACS Infectious Diseases, 2019)
Read-outs that look alike come from different tables or passages of the source.

Key:
Litomosoides sigmodontis = Litomosoides sigmodontis natural infection in vivo model; conditions: L. sigmodontis, necropsy day 63, QD
Protocol: We characterized the in vitro ADME properties of 8a in preparation for evaluation of this compound in our primary in vivo model in gerbils. […] We were pleased to find that 8a was able to kill 100% of both male and female worms in the gerbil peritoneum when dosed subcutaneously at 100 mg/kg/day for 14 days as a suspension in a nonsolubilizing HEC/Tween vehicle. […] The subsequent assessment of the pharmacokinetics of 8a from these two dosing paradigms provided an interesting observation that we believe to be important in understanding the PK–PD requirements for achieving efficacy in this animal model. […] We had made the same observation in a positive control group using flubendazole at a subcutaneous dose of 10 mg/kg/day for 5 days in the nonsolubilizing HEC/Tween vehicle, namely, that plasma levels of flubendazole were maintained above the in vitro IC50 (4 nM) for over 42 days, consistent with data reported in the literature.[43] […] We next examined 8a in two additional in vivo models, the first where L3 B. pahangi larvae were injected into the peritoneum of gerbils and allowed to develop into adult worms[45] and a second where gerbils were naturally infected by the filarial nematode Litomosoides sigmodontis.[46],[47] In both of these models, 8a was administered subcutaneously at 100 mg/kg for 14 days or orally at 100 mg/kg for 28 days as a suspension. […] Additionally, when plasma obtained from treated animals at necropsy was analyzed for 8a, we observed an outcome similar to that observed in the adult implantation model, e.g., that measurable levels were present at this time point in the subcutaneous-dosed groups but not in the orally dosed groups, weeks after administration of the drug. In a final L. sigmodontis experiment with 8a, we dosed the compound subcutaneously at 300 mg/kg for 7 days as a suspension. […]
administered their doses at the same time each day and are allowed to feed and drink ad libitum. Gerbils were euthanized following approved institutional protocols. Euthanized animals were weighed and examined for external and visceral pathologies.
The adult Brugia worms were recovered by opening the body cavity and washing the peritoneal cavity with 100 mL of phosphate buffered saline. Male and female worms were counted using a
Litomosoides sigmodontis natural infection in vivo model
All animal experiments with L. sigmodontis were conducted at the Institute for Medical Microbiology, Immunology and Parasitology
(IMMIP), University Hospital of Bonn, in accordance to the European Union animal welfare guidelines. All protocols were approved by the local authorities (Landesamt für Natur, Umwelt […]
from Janvier (Saint-Berthevin, France) and were housed at the animal facility of the IMMIP in individually ventilated cages on a 12h light/dark cycle with food and water ad libidum. Mice were infected at 6-8 weeks of age via exposure to the natural mite vector Ornithonyssus bacoti containing infectious L. sigmodontis
L3 larvae. To compare the infection, the same batch of mite-containing bedding was used to infect all animals of one experiment. 35 days post infection, a time point adult worms have developed within the thoracic cavity, mice were treated per oral gavage with the test compounds at concentrations indicated in the result section. As a vehicle, 1% CMC + 0.1% Tween80 was used. Negative controls were treated with vehicle and as positive control, mice were treated orally with doxycycline
(Sigma) in 10% DMSO/1xPBS. Necropsies were performed at 64-77

[1] = MDR1-MDCK monolayer permeability assay; assay type: in vitro ADME; conditions: dog
Protocol: (§1) We characterized the in vitro ADME properties of 8a in preparation for evaluation of this compound in our primary in vivo model in gerbils. […] We were pleased to find that 8a was able to kill 100% of both male and female worms in the gerbil peritoneum when dosed subcutaneously at 100 mg/kg/day for 14 days as a suspension in a nonsolubilizing HEC/Tween vehicle. […] The subsequent assessment of the pharmacokinetics of 8a from these two dosing paradigms provided an interesting observation that we believe to be important in understanding the PK–PD requirements for achieving efficacy in this animal model. […] We had made the same observation in a positive control group using flubendazole at a subcutaneous dose of 10 mg/kg/day for 5 days in the nonsolubilizing HEC/Tween vehicle, namely, that plasma levels of flubendazole were maintained above the in vitro IC50 (4 nM) for over 42 days, consistent with data reported in the literature.[43] […] We next examined 8a in two additional in vivo models, the first where L3 B. pahangi larvae were injected into the peritoneum of gerbils and allowed to develop into adult worms[45] and a second where gerbils were naturally infected by the filarial nematode Litomosoides sigmodontis.[46],[47] In both of these models, 8a was administered subcutaneously at 100 mg/kg for 14 days or orally at 100 mg/kg for 28 days as a suspension. […] Additionally, when plasma obtained from treated animals at necropsy was analyzed for 8a, we observed an outcome similar to that observed in the adult implantation model, e.g., that measurable levels were present at this time point in the subcutaneous-dosed groups but not in the orally dosed groups, weeks after administration of the drug. In a final L. sigmodontis experiment with 8a, we dosed the compound subcutaneously at 300 mg/kg for 7 days as a suspension.

Brugia pahangi = Brugia pahangi L3 injection in vivo model in gerbils; conditions: B. pahangi, necropsy day 63, QD
Protocol: as §1
Plates were incubated at 37 °C in a 5% CO2 incubator for 6 days, then molting was assessed visually using an inverted microscope. Molting was determined in each well by counting the presence of fourth stage larvae (L4s) and empty casts of L3s.
The percent inhibition of molting was calculated based on the number of treated larvae that were able to molt in comparison to the number of control larvae that had successfully molted. IC50 values were calculated using GraphPad Prism v6.0
(http://www.graphpad.com). See Bullman et al., PLoS Negl. Trop.
Adult Brugia malayi transplantation in vivo model procedure.
Gerbils (Meriones unguiculatus) were infected by transplantation of 10 male and 10 female adult Brugia malayi into the peritoneal cavity. Gerbils were acclimated for 7 days prior to treatment. Animals were dosed based on their body weight prior to each dosing. Animals were administered their doses at the same time each day and receive standard rodent laboratory diet and water ad libitum. Gerbils were humanely euthanized at the conclusion of each study. Peritoneal counts of male and female adult B. malayi and visual condition of the peritoneum were recorded.
Brugia pahangi L3 injection in vivo model procedure 8. […]
(Filariatech, Inc., Athens, GA). […] All gerbils were dosed in accordance with their body weight determined prior to each dosing. […]
The adult Brugia worms were recovered by opening the body cavity and washing the peritoneal cavity with 100 mL of phosphate buffered saline. Male and female worms were counted using a […]

[2] = 100 mg/kg × 28 days, PO (suspension)
[3] = 300 mg/kg × 7 days, SC (suspension)

Structure (SMILES)	adult worm reduction (Litomosoides sigmodontis; [2])	animals with no worms (Litomosoides sigmodontis; [2])	adult worm reduction (Litomosoides sigmodontis; [3])	animals with no worms (Litomosoides sigmodontis; [3])	Papp A→B [1]	adult worm reduction (Brugia pahangi; 100 mg/kg × 14 days, SC (suspension))	adult worm reduction (Brugia pahangi; [2])	animals with no worms (Brugia pahangi; [2])	adult worm reduction (Litomosoides sigmodontis; 10 mg/kg × 5 days, SC)	animals with no worms (Litomosoides sigmodontis; 10 mg/kg × 5 days, SC)	Papp A→B ([1]; A-B, Table 1, read-out: MDCK-MDR1 Papp (A-B))	adult worm reduction (Brugia pahangi; 10 mg/kg × 5 days, SC)	animals with no worms (Brugia pahangi; 10 mg/kg × 5 days, SC)
COC(=O)Nc1nc2cc(C(=O)NCc3ccc4c(c3)B(O)OC4(C)C)ccc2[nH]1 [8a]	–135.3%	0%	100%/100%	100%/100%	0.8 ×10⁻⁶ cm/s	100%	24%	0%	–	–	–	–	–
COC(=O)Nc1nc2cc(C(=O)c3ccc(F)cc3)ccc2[nH]1 [compound 1, Flubendazole, reference compound]	–	–	–	–	–	–	–	–	100%/100%	100%/100%	15.6 ×10⁻⁶ cm/s	100%/100%	100%/100%
